What was measured:
Assay in all cases: greenhouse post-emergence herbicidal test
AMBEL = assay type: in vivo, Ambrosia artemisiifolia; set-up: key: rating on a scale from 0 to 100; conditions: 20 g/ha a.i.
Method: (§1) The culture containers used were plastic pots containing medium loamy sand with approximately 4.6% of humus and 69.9% sand as substrate. The seeds of the test plants were sown separately for each species.
(§2) For the post-emergence treatment, the test plants were grown to a plant height of from 1 to 15 cm, depending on the plant habit, and only then treated with the active compounds which had been suspended or emulsified in water. To this end, the test plants were either sown directly, and grown in the same containers, or they were first grown separately as seedlings and transplanted into the test containers a few days prior to treatment.
(§3) Depending on the species, the plants were kept at 10-25° C. and 20-35° C., respectively.
(§4) The test period extended over 1 to 3 weeks. During this time, the plants were tended and their response to the individual treatments was evaluated 20 days after treatment except mentioned otherwise.
(§5) Evaluation was carried out using a scale from 0 to 100. 100 means no emergence of the plants, or complete destruction of at least the above-ground parts, and 0 means no damage or normal course of growth.
(§6) The respective stated components A and B, and, if appropriate, C, were formulated as a 10% by weight strength emulsion concentrate and, with addition of the amount of solvent system, introduced into the spray liquor used for applying the active compound. In the examples, the solvent used was water.
(§7) In the examples below, using the method of S. R. Colby (1967) “Calculating synergistic and antagonistic responses of herbicide combinations”, Weeds 15, p. 22 ff., the value E, which is expected if the activity of the individual active compounds is only additive, was calculated. E=X+Y−(X·Y/100)

MATCH = assay type: in vivo, Matricaria recutita; set-up: key to herbicidal activity against MATCH found: rating on a scale from 0 to 100; conditions: post emergence
Procedure, shortened: (§8)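 Greenhouse pots, loamy sand substrate (~4.6% humus, ~69.9% sand). Spray applied once plants reached 1–15 cm. Scoring 0–100, day 20.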

POLPE = assay type: in vivo, Persicaria maculosa; set-up: key: scale 0 to 100
Method: as §1, §2, §3, §4, §5, §6, §7

LOLMU = assay type: in vivo, Lolium multiflorum
Method: as §1, §2, §3, §4, §5, §6, §7

CHEAL = assay type: in vivo, Chenopodium album
Method: as §1, §2, §3, §4, §5, §6, §7

ABUTH = assay type: in vivo, Abutilon theophrast; set-up: key to herbicidal activity against ABUTH found: rating on a scale from 0 to 100; conditions: post emergence
Procedure, shortened: as §8

STEME = assay type: in vivo, Stellaria media; set-up: key: scale 0 to 100
Method: as §1, §2, §3, §4, §5, §6, §7

APESV = assay type: in vivo, Apera spica-venti; set-up: key to herbicidal activity against APESV found: rating on a scale from 0 to 100; conditions: post emergence, 20 days after treatment
Procedure, shortened: as §8

POLCO = assay type: in vivo, Polygonum convolvulus; set-up: key to herbicidal activity against POLCO found: rating on a scale from 0 to 100; conditions: post emergence
Procedure, shortened: (§9)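 Post-emergence greenhouse test: plants in loamy sand, sprayed at 1–15 cm height with aqueous spray liquor from 10% emulsion concentrates, kept at 10-25 °C or 20-35 °C by species. Damage scored 0–100 (100 = complete destruction), usually 20 days after treatment. Expected additive effect E from Colby: E=X+Y−(X·Y/100).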

PHACA = assay type: in vivo
Method: as §1, §2, §3, §4, §5, §6, §7

ECHCG = assay type: in vivo, Echinochloa crus-galli; set-up: key to herbicidal activity against ECHCG found / herbicidal activity against ECHCH found: scale 0 to 100; conditions: post emergence, 20 days after treatment
Procedure, shortened: as §8

GALAP = assay type: in vivo, Galium aparine; set-up: key to herbicidal activity against GALAP found: rating on a scale from 0 to 100; conditions: post emergence
Procedure, shortened: as §9

CONAR = assay type: in vivo, Convolvulus arvensis; set-up: key: rating on a scale from 0 to 100
Method: as §1, §2, §3, §4, §5, §6, §7

GERDI = assay type: in vivo, Geranium dissectum; set-up: key to herbicidal activity against GERDI found: rating on a scale from 0 to 100; conditions: post emergence
Procedure, shortened: as §8

ALOMY = assay type: in vivo, Alopecurus myosuroides; set-up: key to herbicidal activity against ALOMY found: rating on a scale from 0 to 100; conditions: post emergence, 20 days after treatment
Procedure, shortened: as §8

DIGSA = assay type: in vivo, Digitaria sanguinalis
Method: as §1, §2, §3, §4, §5, §6, §7

AMARE = assay type: in vivo, Amaranthus retroflexus; conditions: a.i. g/ha: I.1 31.25, B.76 225, 20 days after treatment
Method: as §1, §2, §3, §4, §5, §6, §7

PANMI = assay type: in vivo, Panicum miliaceum; conditions: application rate a.i.: I.1 125 g/ha, alone or as mixture (composition 1.113)
Method: as §1, §2, §3, §4, §5, §6, §7

PAPRH = assay type: in vivo, Papaver rhoeas; set-up: key: rating on a scale from 0 to 100
Procedure, shortened: as §8

POLAV = assay type: in vivo, Polygonum aviculare; set-up: key: rating on a scale from 0 to 100
Method: as §1, §2, §3, §4, §5, §6, §7

LAMAM = assay type: in vivo, Lamium amplexicaule; set-up: key: scale 0 to 100
Method: as §1, §2, §3, §4, §5, §6, §7

VIOAR = assay type: in vivo, Viola arvensis; set-up: key to herbicidal activity against VIOAR found / herbicidal activity against VIOLA found: rating on a scale from 0 to 100; conditions: post emergence
Procedure, shortened: as §9

[1] = a.i. g/ha: I.1 7.8, B.67 125, 20 days after treatment
[2] = a.i. g/ha: I.1 15.6, B.67 125, 20 days after treatment
[3] = a.i. g/ha: I.1 31.25, B.67 125, 20 days after treatment
[4] = a.i. g/ha: I.1 62.5, B.67 62.5, 20 days after treatment
[5] = a.i. g/ha: I.1 62.5, B.67 125, 20 days after treatment
[6] = a.i. g/ha: I.1 6.9, B.67 62.5, 20 days after treatment
[7] = a.i. g/ha: I.1 20.8, B.67 62.5, 20 days after treatment
[8] = a.i. g/ha: I.1 31.25, B.67 125, 20 days after treatment, sub-table r36-r43
[9] = a.i. g/ha: I.1 31.25, B.76 225, 20 days after treatment
[10] = a.i. g/ha: I.1 62.5, B.76 225, 20 days after treatment
[11] = application rate a.i.: I.1 125 g/ha, B.113 (glyphosate) 33.75 g/ha, alone or as mixture (composition 1.113)
[12] = application rate a.i.: I.1 125 g/ha, B.113 (glyphosate) 135 g/ha, alone or as mixture (composition 1.113)

COc1cc(OC)nc(NC(=O)NS(=O)(=O)c2ncccc2C(=O)N(C)C)n1 [B.51, nicosulfuron]
herbicidal activity against AMBEL found (AMBEL): 80 | pest or weed control at 20 g/ha (MATCH; Matricaria chamomilla, post-emergence, 480 h, 20 g/ha a.i., read-out: herbicidal activity against MATCH found): 90% | herbicidal activity against POLPE found (POLPE; 20 g/ha a.i.): 95

CCNc1nc(Cl)nc(NC(C)C)n1 [B.67, atrazine]
herbicidal activity against LOLMU found (LOLMU; [1]): 35% | herbicidal activity against LOLMU found (LOLMU; [2]): 35% | herbicidal activity against LOLMU found (LOLMU; [3]): 35% | herbicidal activity against LOLMU found (LOLMU; [4]): 20% | herbicidal activity against LOLMU found (LOLMU; [5]): 35% | herbicidal activity against CHEAL found (CHEAL; [6]): 75% | herbicidal activity against CHEAL found (CHEAL; [2]): 80% | herbicidal activity against CHEAL found (CHEAL; [7]): 75% | herbicidal activity against CHEAL found (CHEAL; [3]): 80% | herbicidal activity against ABUTH found (ABUTH; [1]): 60% | herbicidal activity against ABUTH found (ABUTH; [2]): 60% | herbicidal activity against ABUTH found (ABUTH; [3]): 60% | herbicidal activity against ABUTH found (ABUTH; [8]): 60% | herbicidal activity against ABUTH found (ABUTH; [5]): 60% | herbicidal activity against STEME found (STEME; a.i. g/ha: I.1 2.3, B.67 62.5, 20 days after treatment): 80% | herbicidal activity against STEME found (STEME; [6]): 80% | herbicidal activity against STEME found (STEME; [2]): 75% | herbicidal activity against STEME found (STEME; [7]): 80% | herbicidal activity against STEME found (STEME; [3]): 75% | herbicidal activity against STEME found (STEME; [8]): 75% | herbicidal activity against APESV found (APESV; a.i. g/ha: I.1 2.3, B.67 62.5): 60% | herbicidal activity against APESV found (APESV; a.i. g/ha: I.1 6.9, B.67 62.5): 60% | herbicidal activity against POLCO found (POLCO; [2]): 60% | herbicidal activity against POLCO found (POLCO; [7]): 80% | herbicidal activity against POLCO found (POLCO; [3]): 60% | herbicidal activity against POLCO found (POLCO; [4]): 80% | herbicidal activity against PHACA found (PHACA; [3]): 30% | herbicidal activity against PHACA found (PHACA; [5]): 30% | herbicidal activity against ECHCG found (ECHCG; a.i. g/ha: I.1 20.8, B.67 62.5): 35% | herbicidal activity against ECHCG found (ECHCG; a.i. g/ha: I.1 62.5, B.67 62.5): 35% | herbicidal activity against GALAP found (GALAP; [2]): 70% | herbicidal activity against GALAP found (GALAP; [7]): 65% | herbicidal activity against GALAP found (GALAP; [3]): 70% | herbicidal activity against GALAP found (GALAP; [4]): 65% | herbicidal activity against MATCH found (MATCH; [3]): 70% | herbicidal activity against MATCH found (MATCH; [8]): 70% | herbicidal activity against MATCH found (MATCH; [5]): 50% | herbicidal activity against CONAR found (CONAR; [1]): 65% | herbicidal activity against CONAR found (CONAR; [2]): 65% | herbicidal activity against CONAR found (CONAR; [7]): 60% | herbicidal activity against CONAR found (CONAR; [3]): 65% | herbicidal activity against CONAR found (CONAR; [4]): 60% | herbicidal activity against CONAR found (CONAR; [5]): 65% | herbicidal activity against GERDI found (GERDI; [1]): 70% | herbicidal activity against GERDI found (GERDI; [2]): 70% | herbicidal activity against GERDI found (GERDI; [3]): 85% | herbicidal activity against GERDI found (GERDI; [8]): 85% | herbicidal activity against GERDI found (GERDI; [5]): 70% | herbicidal activity against ALOMY found (ALOMY; a.i. g/ha: I.1 6.9, B.67 62.5): 35% | herbicidal activity against ALOMY found (ALOMY; a.i. g/ha: I.1 20.8, B.67 62.5): 35% | herbicidal activity against ALOMY found (ALOMY; a.i. g/ha: I.1 62.5, B.67 62.5): 35%

CC(C)c1ccc(NC(=O)N(C)C)cc1 [B.76, isoproturon]
herbicidal activity against DIGSA found (DIGSA; [9]): 30% | herbicidal activity against DIGSA found (DIGSA; [10]): 30% | herbicidal activity against CHEAL found (CHEAL; [9]): 65% | herbicidal activity against CHEAL found (CHEAL; [10]): 65% | herbicidal activity against AMARE found (AMARE): 50% | herbicidal activity against CONAR found (CONAR; [10]): 65%

O=C(O)CNCP(=O)(O)O [B.113, glyphosate]
herbicidal activity against PANMI, found (PANMI; B.113 (glyphosate) 33.75 g/ha): 80 | herbicidal activity against PANMI, found (PANMI; B.113 (glyphosate) 135 g/ha): 90 | herbicidal activity against GALAP found (GALAP; [11]): 50 | herbicidal activity against GALAP found (GALAP; [12]): 80 | herbicidal activity against CONAR found (CONAR; [11]): 45 | herbicidal activity against GERDI found (GERDI; [12]): 80

Cc1cc(Cl)ccc1OCC(=O)O [B.164, MCPA]
herbicidal activity against ABUTH found (ABUTH; 200 g/ha a.i.): 80 | herbicidal activity against PAPRH found (PAPRH; 100 g/ha a.i.): 60 | herbicidal activity against PAPRH found (PAPRH; 200 g/ha a.i.): 65 | herbicidal activity against STEME found (STEME; 100 g/ha a.i.): 50 | herbicidal activity against STEME found (STEME; 200 g/ha a.i.): 60 | herbicidal activity against STEME found (STEME; 400 g/ha a.i.): 80 | herbicidal activity against POLCO found (POLCO; 200 g/ha a.i.): 50 | herbicidal activity against POLCO found (POLCO; 400 g/ha a.i.): 50 | herbicidal activity against POLAV found (POLAV; 100 g/ha a.i.): 70 | herbicidal activity against POLAV found (POLAV; 200 g/ha a.i.): 85 | herbicidal activity against POLAV found (POLAV; 400 g/ha a.i.): 85 | herbicidal activity against LAMAM, found (LAMAM; 200 g/ha a.i.): 65 | herbicidal activity against LAMAM, found (LAMAM; 400 g/ha a.i.): 70 | herbicidal activity against VIOAR found (VIOAR; 100 g/ha a.i.): 60 | herbicidal activity against VIOAR found (VIOAR; 200 g/ha a.i.): 65 | herbicidal activity against VIOAR found (VIOAR; 400 g/ha a.i.): 70 | herbicidal activity against GALAP found (GALAP; 400 g/ha a.i.): 30 | herbicidal activity against MATCH found (MATCH; 400 g/ha a.i.): 50 | herbicidal activity against CONAR found (CONAR; 200 g/ha a.i.): 90 | herbicidal activity against CONAR found (CONAR; 400 g/ha a.i.): 90 | herbicidal activity against POLPE found (POLPE; 200 g/ha a.i.): 65 | herbicidal activity against POLPE found (POLPE; 400 g/ha a.i.): 80 | herbicidal activity against GERDI found (GERDI; 100 g/ha a.i.): 65

From patent US10881110B2, “Herbicidal compositions comprising isoxazolo[5,4-b]pyridines” (BASF SE, priority 2014, dated 2021)
